One experiment has as its system MMP-13CD. Put plainly: Thiopeptolide assay, MMP-13CD. It is filed as biochemical, human. As to conditions: Tables 2, 3, 5, 7. The protocol: IC50 values were determined using a thiopeptolide substrate, Ac-Pro-Leu-Gly-thioester-Leu-Leu-Gly-OEt (Ye Q.-Z., Johnson L. L., Hupe D. J., and Baragi V., "Purification and Characterization of the Human Stromelysin Catalytic Domain Expressed in Escherichia coli," Biochemistry, 1992;31:11231-11235). MMP01, MMP07, MMP09, and MMP13 activity was assayed in a method similar to MMP02 and MMP03 (SCD and GCD). MMP01 and MMP09 can be obtained from Washington University School of Medicine, St. Louis, Mo. MMP07 can be obtained in accordance with the known procedure set forth by Ye QZ, Johnson L. L., and Baragi V., "Gene Syntheses and Expression in E. coli for PUMP, a Human Matrix Metalloproteinase" Biochem. and Biophys. Res. Comm., 1992; 186:143-149. MMP 13 can be obtained in accordance with the known procedure set forth by Freije J. M. P., et al., "Molecular Cloning and Expression of Collegenase-3, a Novel Human Matrix Metalloproteinase Produced by Breast Carcinomas" J. Bio. Chem., 1994;269:16766-6773.
(§1) Hydrolysis of the thiopeptolide substrate Ac-Pro-Leu-Gly-thioester-Leu-Leu-Gly-OEt (Bachem) is used as the primary screen to determine IC50 values for MMP inhibitors. A 100 μL reaction contains 1 mM 5,5'-dithiobis(2-nitrobenzoic acid) (DTNB), 100 μM substrate, 0.1% Brij, enzyme, and inhibitor in the appropriate reaction buffer. Activated full-length enzymes are assayed at 5 nM, Stromelysin Catalytic Domain (SCD) at 10 nM, and Gelatinase A Catalytic Domain (GaCD) at 1 nM. Inhibitors are screened from 100 μM to 1 nM. Full-length enzymes are assayed in 50 mM HEPES, 10 mM CaCl2, pH 7.0; SCD in 50 mM MES, 10 mM CaCl2, pH 6.0; and GaCD in 50 mM MOPS, 10 mM CaCl2, 10 μM ZnCl2, pH 7.0. The change in absorbance at 405 riM is monitored on a ThermoMax microplate reader at room temperature continuously for 20 minutes.

Another experiment deals with T1, MMP07 (Homo sapiens, UniProt P09237).
T1 construct: made in house; host or cells: Escherichia coli
T1 sequence (P09237 95-267): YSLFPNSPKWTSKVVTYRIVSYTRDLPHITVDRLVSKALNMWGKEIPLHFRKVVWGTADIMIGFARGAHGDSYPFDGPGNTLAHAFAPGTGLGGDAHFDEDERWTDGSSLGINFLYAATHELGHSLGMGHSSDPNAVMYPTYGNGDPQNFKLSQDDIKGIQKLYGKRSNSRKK
Put plainly: Thiopeptolide assay, MMP07. It is filed as biochemical. As to conditions: Tables 2, 3, 5, 7; read-out: IC50 MMP-7. The protocol: (§2) MMP01, MMP07, MMP09, and MMP13 activity was assayed in a method similar to MMP02 and MMP03 (SCD and GCD). MMP01 and MMP09 can be obtained from Washington University School of Medicine, St. Louis, Mo. MMP07 can be obtained in accordance with the known procedure set forth by Ye QZ, Johnson L. L., and Baragi V., "Gene Syntheses and Expression in E. coli for PUMP, a Human Matrix Metalloproteinase" Biochem. and Biophys. […] MMP 13 can be obtained in accordance with the known procedure set forth by Freije J. M. P., et al., "Molecular Cloning and Expression of Collegenase-3, a Novel Human Matrix Metalloproteinase Produced by Breast Carcinomas" J. Bio.
as §1, with “7.0.” for “7.0. The change in absorbance at 405 riM is monitored on a ThermoMax microplate reader at room temperature continuously for 20 minutes.”

Experiment [1] deals with T2, stromelysin-1 catalytic domain (MMP03) (Homo sapiens, UniProt P08254).
T2 construct: SCD (stromelysin-1 catalytic domain); made in house; host or cells: Escherichia coli
T2 sequence (P08254 100-272 limits assumed): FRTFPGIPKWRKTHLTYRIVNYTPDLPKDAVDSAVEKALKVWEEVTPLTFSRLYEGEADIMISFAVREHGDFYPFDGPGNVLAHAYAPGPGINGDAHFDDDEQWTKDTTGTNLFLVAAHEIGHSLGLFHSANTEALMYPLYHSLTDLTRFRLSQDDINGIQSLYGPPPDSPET
The experiment in a line: Thiopeptolide assay, stromelysin-1 catalytic domain (SCD, MMP03). The format is biochemical. As to conditions: Tables 2, 3, 5, 7; read-out: IC50 MMP 3CD. As to the method:
as §1, with “7.0.” for “7.0. The change in absorbance at 405 riM is monitored on a ThermoMax microplate reader at room temperature continuously for 20 minutes.”

For experiment [2], the target named is gelatinase A catalytic domain (MMP02). The experiment in a line: Thiopeptolide assay, gelatinase A catalytic domain (GCD, MMP02). Particulars: Tables 2, 3, 5, 7; read-out: IC50 MMP-2CD. It is filed as biochemical. As to the method: as §1, with “7.0.” for “7.0. The change in absorbance at 405 riM is monitored on a ThermoMax microplate reader at room temperature continuously for 20 minutes.”

A further experiment addresses T3, MMP01 (Homo sapiens, UniProt P03956).
T3 construct: purchased Washington University School of Medicine, St. Louis, Mo
T3 sequence (P03956 100-469): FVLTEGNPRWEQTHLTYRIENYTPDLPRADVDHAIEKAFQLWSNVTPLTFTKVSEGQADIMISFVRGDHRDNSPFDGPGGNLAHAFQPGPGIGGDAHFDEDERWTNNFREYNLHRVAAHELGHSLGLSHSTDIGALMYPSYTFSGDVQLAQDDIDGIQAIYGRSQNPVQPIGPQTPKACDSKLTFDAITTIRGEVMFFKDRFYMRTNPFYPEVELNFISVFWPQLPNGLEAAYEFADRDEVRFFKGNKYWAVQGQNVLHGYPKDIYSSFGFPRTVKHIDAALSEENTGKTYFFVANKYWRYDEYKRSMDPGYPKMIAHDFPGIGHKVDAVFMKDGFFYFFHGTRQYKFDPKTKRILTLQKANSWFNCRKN
Put plainly: Thiopeptolide assay, MMP01. It is filed as biochemical. Particulars: Tables 2, 3, 5, 7; read-out: IC50 MMP1. The protocol:
as §2
as §1, with “7.0.” for “7.0. The change in absorbance at 405 riM is monitored on a ThermoMax microplate reader at room temperature continuously for 20 minutes.”

The structures appear in SMILES notation.

Take `CN(C)CCNC(=O)CCC(NS(=O)(=O)c1ccc2oc3ccccc3c2c1)C(=O)O` (stereo not shown) [Example F9, 2-(Dibenzofuran-2-sulfonylamino)-4-(2-dimethylamino-ethylcarbamoyl)-butyricacid]: the IC50 in the experiment with MMP-13CD was 39.3 µM; on MMP07, more than 100 µM; in experiment [1], 22.6 µM; in experiment [2], 9.8 µM; at MMP01 it was more than 100 µM.
Consider `O=C(O)C(CCCCNS(=O)(=O)c1ccc2ccccc2c1)NS(=O)(=O)c1ccc2oc3ccccc3c2c1` (stereo not shown) [Example D8, 2-(Dibenzofuran-2-sulfonylamino)-6-(naphthalene-2-sulfonylamino)-hexanoic acid], for which the IC50 was 39 µM in the experiment on MMP-13CD; more than 100 µM on MMP07; 19 µM in experiment [1]; 7 µM in experiment [2]; more than 100 µM on MMP01.
Consider `O=C(NCCCCC(NS(=O)(=O)c1ccc2oc3ccccc3c2c1)C(=O)O)NCc1ccccc1` (stereo not shown) [Example B9, 6-(3-Benzyl-ureido)-2-(dibenzofuran-2-sulfonylamino)-hexanoic acid], for which the IC50 was 4 µM with MMP-13CD; 70.2 µM on MMP07; 1.4 µM in experiment [1]; 0.8 µM in experiment [2]; more than 100 µM at MMP01.
Regarding `CCCc1ccc(NC(=O)CCC(NS(=O)(=O)c2ccc3oc4ccccc4c3c2)C(=O)O)cc1` (stereo not shown) [Example F4, 2-(Dibenzofuran-2-sulfonylamino)-4-(4-propyl-phenylcarbamoyl)-butyric acid], the IC50 stood at 2.2 µM with MMP-13CD; 42.7 µM on MMP07; 0.6 µM in experiment [1]; 0.3 µM in experiment [2]; 93.7 µM on MMP01.
For `COc1ccc(S(=O)(=O)NCCCCC(NS(=O)(=O)c2ccc3oc4ccccc4c3c2)C(=O)O)cc1` (stereo not shown) [Example D2, 2-(Dibenzofuran-2-sulfonylamino)-6-(4-methoxy-benzenesulfonylamino)-hexanoic acid], the IC50 in the experiment with MMP-13CD was 7.1 µM; at MMP07, more than 100 µM; in experiment [1], 4.6 µM; in experiment [2], 1.8 µM; on MMP01, more than 100 µM.
For `O=C(CCc1ccncc1)NCCCCC(NS(=O)(=O)c1ccc2oc3ccccc3c2c1)C(=O)O` (stereo not shown) [Example A22, 2-(Dibenzofuran-2-sulfonylamino)-6-(3-pyridin4-yl-propionylamino)-hexanoic Acid], the IC50 in the experiment on MMP-13CD was 10 µM; at MMP07, more than 100 µM; in experiment [1], 9 µM; in experiment [2], 3 µM; at MMP01, more than 100 µM.
Regarding `O=C(CCC(NS(=O)(=O)c1ccc2oc3ccccc3c2c1)C(=O)O)NCCc1ccncc1` (stereo not shown) [Example F1, 2-(Dibenzofuran-2-sulfonylamino)-4-(2-pyridin-4-yl-ethylcarbamoyl)-butyric acid], the IC50 was 4.1 µM in the experiment with MMP-13CD; 62 µM on MMP07; 1.9 µM in experiment [1]; 1.4 µM in experiment [2]; more than 100 µM at MMP01.
As to `O=C(CCCc1ccc([N+](=O)[O-])cc1)NCCCCC(NS(=O)(=O)c1ccc2oc3ccccc3c2c1)C(=O)O` (stereo not shown) [Example A21, 2-(Dibenzofuran-2-sulfonylamino)-6-[4-(4-nitro-phenyl)-butyrylamino]-hexanoic acid], the IC50 with MMP-13CD is 9.2 µM; at MMP07, more than 100 µM; in experiment [1] it was 7.5 µM; in experiment [2] it was 3.3 µM; at MMP01, more than 100 µM.
For the compound `CC(O)CNC(=O)CCC(NS(=O)(=O)c1ccc2oc3ccccc3c2c1)C(=O)O` (stereo not shown) [Example F3, 2-(Dibenzofuran-2-sulfonylamino)-4-(2-hydroxy-propylcarbamoyl)-butyric acid], the IC50 was 24.1 µM in the experiment on MMP-13CD; more than 100 µM at MMP07; 8.7 µM in experiment [1]; 3.9 µM in experiment [2]; more than 100 µM on MMP01.
For `O=C(O)C(CCCCNC(=S)NCc1ccccc1)NS(=O)(=O)c1ccc2oc3ccccc3c2c1` (stereo not shown) [Example B5, 6-(3-Benzyl-thioureido)-2-(dibenzofuran-2-sulfonylamino)-hexanoic acid], the IC50 was 3.3 µM in the experiment with MMP-13CD; more than 100 µM on MMP07; 2.3 µM in experiment [1]; 1.2 µM in experiment [2]; more than 100 µM at MMP01.
Regarding `O=C(O)C(CCCCNS(=O)(=O)c1ccc(Br)cc1)NS(=O)(=O)c1ccc2oc3ccccc3c2c1` (stereo not shown) [Example D3, 6-(4-Bromo-benzenesulfonylamino)-2-(dibenzofuran-2-sulfonylamino)-hexanoic acid], the IC50 was 11.8 µM in the experiment with MMP-13CD; more than 100 µM at MMP07; 8.6 µM in experiment [1]; 2.9 µM in experiment [2]; more than 100 µM at MMP01.
Regarding `O=C(COc1cccc2ccccc12)NCCCCC(NS(=O)(=O)c1ccc2oc3ccccc3c2c1)C(=O)O` (stereo not shown) [Example A14, 2-(Dibenzofuran-2-sulfonylamino)-6-[2-(naphthalen-1-yloxy)acetylamino]-hexanoic acid], the IC50 is 42.6 µM in the experiment on MMP-13CD; more than 100 µM on MMP07; 5.2 µM in experiment [1]; 7.8 µM in experiment [2]; more than 100 µM at MMP01.
Turning to `O=C(CCCc1cccs1)NCCCCC(NS(=O)(=O)c1ccc2oc3ccccc3c2c1)C(=O)O` (stereo not shown) [Example A35, 2-(Dibenzofuran-2-sulfonylamino)-6-[4-thiophen-2-yl-butyrylamino)-hexanoic acid], the IC50 with MMP-13CD was 4.4 µM; at MMP07 it was more than 100 µM; in experiment [1], 1.7 µM; in experiment [2] it was 1.1 µM; at MMP01, more than 100 µM.
Consider `O=C(O)C(CCCCNC(=S)NC(c1ccccc1)c1ccccc1)NS(=O)(=O)c1ccc2oc3ccccc3c2c1` (stereo not shown) [Example B4, 6-(3-Benzhydryl-thioureido)-2-(dibenzofiuran-2-sulfonylamino)-hexanoic acid], for which the IC50 with MMP-13CD is 20.5 µM; on MMP07, more than 100 µM; in experiment [1], 8.1 µM; in experiment [2], 9.1 µM; at MMP01 it was more than 100 µM.

(Values after patent US6294674A, “Dibenzofuran sulfonamide matrix metalloproteinase inhibitors” (priority 1999, dated 2001).)
